Test results reported in patent US11147272B2, “Pyridone compounds and agricultural and horticultural fungicides comprising the same as active ingredients” (MITSUI CHEMICALS AGRO, INC., priority 2017, dated 2021).
Read-outs that look alike come from different tables or passages of the source.

Key:
Plasmopara viticola = assay: Test Example G: Downy mildew on vine; details: for Test G control value class: Downy mildew on vine (Neomuscat), 2.5 ml/pot, assessed 7 to 10 days after inoculation; for pest or weed control at 250 ppm: Plasmopara viticola, topical; for Test G control value: 7 to 10 days after inoculation
Phytophthora infestans = assay: whole plant or invertebrate; format: in vivo; details: for Test F control value class: class of control value; for pest or weed control at 250 µg/mL: Phytophthora infestans, in Solanum lycopersicum, topical
Botrytis cinerea = assay: Test Example B: Gray mold on tomato; details: for Test B control value class: class of control value; for pest or weed control at 250 µg/mL: Botrytis cinerea, in Solanum lycopersicum, topical
Magnaporthe grisea = assay: whole plant or invertebrate; format: in vivo; details: for Test A control value class: class of control value; for pest or weed control at 250 µg/mL: Pyricularia oryzae, in Oryza sativa
[1] = tested on: Blumeria graminis f. sp. hordei; assay: Test Example D: Powdery mildew on barley; details: for Test D control value class: class of control value; for pest or weed control at 250 µg/mL: Blumeria graminis, in Hordeum vulgare, topical
Puccinia recondita = assay: Test Example E: Brown rust on wheat; format: in vivo; details: for pest or weed control at 250 µg/mL: Puccinia recondita, topical
[2] = tested on: Colletotrichum orbiculare; assay: Test Example H: Anthracnose on cucumber; details: for Test H control value class: Anthracnose on cucumber (Sagami Hanjiro), 2.5 ml/pot, assessed 6 to 10 days after inoculation; for pest or weed control at 250 ppm: Colletotrichum orbiculare, in Cucumis sativus, topical; for Test H control value: 6 to 10 days after inoculation
Alternaia brassicicola = assay: Test Example C: Alternaria sooty spot on cabbage; format: in vivo; details: for pest or weed control at 250 µg/mL: Brassica oleracea, topical
Text: Seeds of a test plant (cabbage variety: Shikidori) were planted and cultivated until the cotyledons extended.
<Control Value> Control value=100{1−(n/3)}

[3] = Brown rust on wheat, class of control value
[4] = Alternaria sooty spot on cabbage, class of control value
[5] = Downy mildew on vine, 250 ppm spray
[6] = Late blight on tomato, control value class
[7] = Gray mold on tomato, control value class
[8] = Blast on rice, control value class
[9] = Powdery mildew on barley, control value class
[10] = Brown rust on wheat, control value class
[11] = Anthracnose on cucumber, 250 ppm spray
[12] = Alternaria sooty spot on cabbage, control value class
[13] = 250 ppm drug solution sprayed on test plant

| Compound | Test G control value class (Plasmopara viticola; 250 ppm spray) | Test F control value class (Phytophthora infestans; Late blight on tomato) | Test B control value class (Botrytis cinerea; Gray mold on tomato) | Test A control value class (Magnaporthe grisea; Blast on rice) | Test D control value class ([1]; Powdery mildew on barley) | Test E control value class (Puccinia recondita; [3]) | Test H control value class ([2]; 250 ppm spray) | Test C control value class (Alternaia brassicicola; [4]) | Test G control value (Plasmopara viticola; [5]) | Test F control value (Phytophthora infestans; [6]) | Test B control value (Botrytis cinerea; [7]) | Test A control value (Magnaporthe grisea; [8]) | Test D control value [1, 9] | Test E control value (Puccinia recondita; [10]) | Test H control value [2, 11] | Test C control value (Alternaia brassicicola; [12]) | other results |
| --- | --- | --- | --- | --- | --- | --- | --- | --- | --- | --- | --- | --- | --- | --- | --- | --- | --- |
| CCn1c(-c2c(F)cccc2F)c(C(C)OC)cc(Cl)c1=O (stereo not drawn) [compound 18] | H (more than 50% control value) | H (more than 50% control value) | H (more than 50% control value) | H (more than 50% control value) | H (more than 50% control value) | H (more than 50% control value) | H (more than 50% control value) | H (more than 50% control value) | – | – | – | – | – | – | – | – | – |
| CCn1c(-c2c(F)cccc2F)c(C(C)(OC)C(C)C)cc(Cl)c1=O (stereo not drawn) [Compound No. 187, 3-chloro-6-(2,6-difluorophenyl)-1-ethyl-5-(2-methoxy-3-methylbutan-2-yl)pyridin-2(1H)-one] | – | – | – | – | – | – | – | – | – | – | – | – | – | – | – | – | pest or weed control at 250 ppm (Plasmopara viticola; 168 h, read-out: Test G control value): > 50%; pest or weed control at 250 µg/mL (Phytophthora infestans; read-out: Test F control value): < 50%; pest or weed control at 250 µg/mL (Botrytis cinerea; read-out: Test B control value): > 50%; pest or weed control at 250 µg/mL (Magnaporthe grisea; read-out: Test A control value): > 50%; pest or weed control at 250 µg/mL ([1]; read-out: Test D control value): > 50%; pest or weed control at 250 µg/mL (Puccinia recondita; Brown rust on wheat, control value class, read-out: Test E control value): > 50%; pest or weed control at 250 ppm ([2]; 144 h, read-out: Test H control value): > 50%; pest or weed control at 250 µg/mL (Alternaia brassicicola; Alternaria sooty spot on cabbage, control value class, read-out: Test C control value): > 50% |
| CCC(O)c1cc(Cl)c(=O)n(CC)c1-c1c(F)cccc1F (stereo not drawn) [Compound No. 24, 3-chloro-6-(2,6-difluorophenyl)-1-ethyl-5-(1-hydroxypropyl)pyridin-2(1H)-one] | – | – | – | – | – | – | – | – | – | – | – | – | – | – | – | – | pest or weed control at 250 ppm (Plasmopara viticola; read-out: Test G control value class): < 50%; pest or weed control at 250 µg/mL (Phytophthora infestans; read-out: Test F control value class): < 50%; pest or weed control at 250 µg/mL (Botrytis cinerea; read-out: Test B control value class): > 50%; pest or weed control at 250 µg/mL (Magnaporthe grisea; read-out: Test A control value class): > 50%; pest or weed control at 250 µg/mL ([1]; read-out: Test D control value class): > 50%; pest or weed control at 250 µg/mL (Puccinia recondita; Brown rust on wheat, class of control value, read-out: Test E control value class): > 50%; pest or weed control at 250 ppm ([2]; read-out: Test H control value class): > 50%; pest or weed control at 250 µg/mL (Alternaia brassicicola; Alternaria sooty spot on cabbage, class of control value, read-out: Test C control value class): > 50% |
| CCn1c(-c2c(F)cc(F)cc2F)c(C(O)C2CCCC2)cc(Cl)c1=O (stereo not drawn) [compound 231] | – | – | – | – | – | – | – | – | H (more than 50% control value) | H (more than 50% control value) | H (more than 50% control value) | H (more than 50% control value) | H (more than 50% control value) | H (more than 50% control value) | H (more than 50% control value) | H (more than 50% control value) | – |
| CCn1c(-c2c(F)cc(OC)cc2F)c(C(OC)C(C)C)cc(Cl)c1=O (stereo not drawn) [compound 71] | L (50% or less control value) | L (50% or less control value) | H (more than 50% control value) | H (more than 50% control value) | H (more than 50% control value) | H (more than 50% control value) | H (more than 50% control value) | H (more than 50% control value) | – | – | – | – | – | – | – | – | – |
| COCCOc1cc(F)c(-c2c(C(C)(C)C)cc(Cl)c(=O)n2C)c(F)c1 [compound 84] | L (50% or less control value) | L (50% or less control value) | L (50% or less control value) | L (50% or less control value) | L (50% or less control value) | L (50% or less control value) | H (more than 50% control value) | H (more than 50% control value) | – | – | – | – | – | – | – | – | – |
| CCn1c(-c2ccc(Br)cc2F)c(CC(C)C)cc(Cl)c1=O [compound 143] | H (more than 50% control value) | L (50% or less control value) | H (more than 50% control value) | H (more than 50% control value) | H (more than 50% control value) | H (more than 50% control value) | H (more than 50% control value) | H (more than 50% control value) | – | – | – | – | – | – | – | – | – |
| CCn1c(-c2c(F)cc(F)cc2F)c(COc2ccccc2)cc(Cl)c1=O [compound 308] | – | – | – | – | – | – | – | – | L (50% or less control value) | L (50% or less control value) | L (50% or less control value) | H (more than 50% control value) | L (50% or less control value) | L (50% or less control value) | L (50% or less control value) | H (more than 50% control value) | – |
| CCn1c(-c2c(F)cc(OC)cc2F)c(C(=O)C(C)C)cc(Cl)c1=O [compound 73] | H (more than 50% control value) | L (50% or less control value) | H (more than 50% control value) | H (more than 50% control value) | H (more than 50% control value) | H (more than 50% control value) | H (more than 50% control value) | H (more than 50% control value) | – | – | – | – | – | – | – | – | – |
| CCn1c(-c2c(F)cc(F)cc2F)c(C(O)C(C)C)cc(Br)c1=O (stereo not drawn) [compound 365] | – | – | – | – | – | – | – | – | H (more than 50% control value) | L (50% or less control value) | H (more than 50% control value) | H (more than 50% control value) | H (more than 50% control value) | H (more than 50% control value) | H (more than 50% control value) | H (more than 50% control value) | – |
| CCn1c(-c2ccc(OC)cc2)c(C(C)(F)C(C)C)cc(Cl)c1=O (stereo not drawn) [compound 249] | – | – | – | – | – | – | – | – | L (50% or less control value) | L (50% or less control value) | H (more than 50% control value) | L (50% or less control value) | L (50% or less control value) | H (more than 50% control value) | H (more than 50% control value) | H (more than 50% control value) | – |
| CCC(OC)c1cc(Cl)c(=O)n(CC)c1-c1c(F)cc(OC)cc1F (stereo not drawn) [compound 48] | H (more than 50% control value) | L (50% or less control value) | H (more than 50% control value) | H (more than 50% control value) | H (more than 50% control value) | H (more than 50% control value) | H (more than 50% control value) | H (more than 50% control value) | – | – | – | – | – | – | – | – | – |
| C#CC(=O)c1cc(Cl)c(=O)n(CC)c1-c1c(F)cc(F)cc1F [compound 284] | – | – | – | – | – | – | – | – | H (more than 50% control value) | H (more than 50% control value) | H (more than 50% control value) | L (50% or less control value) | H (more than 50% control value) | H (more than 50% control value) | H (more than 50% control value) | H (more than 50% control value) | – |
| CCCc1cc(Br)c(=O)n(CC)c1-c1ccc(F)cc1Br [compound 369] | – | – | – | – | – | – | – | – | H (more than 50% control value) | H (more than 50% control value) | H (more than 50% control value) | H (more than 50% control value) | H (more than 50% control value) | H (more than 50% control value) | H (more than 50% control value) | H (more than 50% control value) | – |
| CCCc1cc(Cl)c(=O)n(CCC)c1-c1c(F)cc(OC)cc1F [compound 443] | – | – | – | – | – | – | – | – | – | – | – | – | – | – | – | – | Test G control value (Plasmopara viticola; 250 ppm drug solution sprayed (2.5 ml/pot), grape Neomuscat): H (more than 50% control value); Test F control value (Phytophthora infestans; [13]): H (more than 50% control value); Test B control value (Botrytis cinerea; [13]): H (more than 50% control value); Test A control value (Magnaporthe grisea; [13]): L (50% or less control value); Test D control value [1, 13]: L (50% or less control value); Test E control value (Puccinia recondita; [13]): H (more than 50% control value); Test H control value ([2]; 250 ppm drug solution sprayed (2.5 ml/pot), cucumber Sagami Hanjiro): H (more than 50% control value); Test C control value (Alternaia brassicicola; [13]): H (more than 50% control value) |
